Source: patent US20070225278A1, “Methods for treating cognitive and other disorders” (priority 2006, published 2007)

Tests used:
[1] = tested on: extracellular glutamate levels in the rat mPFC; assay: In vivo microdialysis, glutamate in medial prefrontal cortex; details: 17 mg/kg s.c., acute
Experimental: Animals: Adult male Sprague-Dawley rats (Charles River, Wilmington, Mass.) weighing 280-350 g at the time of surgery were used for all microdialysis experiments. Adult male Long-Evans rats (Charles River, Wilmington, Mass.) weighing 180-220 g were used for NOR studies. Rats were housed individually for recognition memory studies. All animals had free access to food and water and were group housed in the AAALAC-accredited facility that was maintained on a 12 h light dark cycle (lights on at 0600 h) for at least 1 week prior to surgery or behavioral testing. All in vivo studies were performed in accordance to the ‘Guide for the Care and Use of Laboratory Animals’ as adopted and promulgated by the National Institutes of Health (Pub. 85-23, 1985).
Stereotaxic Surgery Following induction of anesthesia with 3% halothane (Fluothane; Zeneca, Cheshire, UK), animals were secured in a stereotaxic frame with ear and incisor bars (David Kopf, Tujunga, Calif.). Anesthesia was maintained by continuous administration of halothane (1-2%) while a microdialysis guide cannula (CMA/12, CMA Microdialysis, Stockholm, Sweden) was implanted above the medial prefrontal cortex (AP: 3.2 mm ML: −0.6 mm DV: −3.8 mm). […]
Dialysate (10 μL) f was collected and analyzed for extracellular glutamate concentrations. […]

male Sprague-Dawley rats = format: in vivo, rat; details: minimal dose at which sexual dysfunction occurs, male rats
Text: In summary, male rats were allowed access to sexually receptive females during a single overnight mating session and then administered antidepressants with varying degrees of clinically reported sexual deficits. […] Animals
Intact male Sprague-Dawley rats (Charles River Laboratories) arrived at 7 weeks of age and were allowed to habituate for one week prior to sexual experience or behavioral testing. Rats were group housed in same-sex colony rooms with food and water provided ad libitum. All animals were maintained under a 12:12 light-dark cycle (lights on at 6:00 am) with behavioral experiments performed during the light hours beginning at noon.
Ovariectomized female Long-Evans rats (Charles River Laboratories) were individually housed and brought into behavioral estrus weekly by subcutaneous injection of 25 ug 17-B estradiol benzoate in 0.1 ml corn oil 48 hours prior to testing, followed by subcutaneous administration of 2.5 mg progesterone in 0.1 ml corn oil 4 to 6 hours before testing.
For subjects assigned into the sexually experienced group, the following procedures were performed. Individual male rats were placed into the home cage of a a sexually receptive female for overnight mating sessions. The cage was a Plexiglas cage measuring 10×12 inches, with food and water ad libitum. Mating pairs were randomly assigned. […] Following overnight mating sessions, males and females were separated from each other and placed back into same-sex colony rooms where they were group-housed until the time of behavioral testing.
To determine the effects of female stimuli on non-contact penile erections, sexually receptive females were brought into the testing room 30 minutes prior to the start of behavioral testing in order to provide female visual, olfactory, and auditory stimuli for males. The testing arena for observing non-contact penile erections in male rats consisted of an empty rat size Plexiglas cage (11×10 inches) containing no bedding, with an aerated plastic lid and a total ceiling height of 12 inches. […] A penile erection consisted of observation of the male rat in a hunched position grasping the penis with the forepaws and followed by a series of pelvic thrusts. The number of penile erections were quantified over a 30 minute observation session.
Following sexual experience (as described above), male subjects (n=8 per group) were administered either 10 mg/kg/day fluoxetine or saline vehicle for 14 days. On the 14th day, fluoxetine treatment was co-administered with either saline or apomorphine (0.1-0.3 mg/kg, sc) or yohimbine (0.1-0.3 mg/kg, sc) or sildenafil (0.1-0.3 mg/kg, sc) in separate experiments. Non-contact penile erections were evaluated in 30 minute test sessions in the presence of sexually receptive female rats.
Fluoxetine HCl (Tocris), desipramine (Sigma, St. Louis, Mo.) and bupropion HCl (Toronto Research Chemicals, Canada) were dissolved in 0.9% sterile saline vehicle and injected intraperitoneally (i.p.) once daily. On the day of behavioral testing, antidepressants were administered intraperitoneally (i.p.) as one hour pretreatments. For reversal experiments, apomorphine (Sigma, St. Louis, Mo.), yohimbine (Sigma, St. Louis, Mo.) or sildenafil (Toronto Research Chemicals, Canada) were used. Apomorphine was dissolved in 0.9% sterile saline vehicle and injected subcutaneously (s.c.). Yohimbine was dissolved in dH2O facilitated with 1N HCl, followed by addition of 1N NaOH for titration (pH=7) and administered intraperitoneally (i.p.). Sildenafil was dissolved in 0.9% sterile saline vehicle and administered intraperitoneally (i.p.). With the exception of fluoxetine which was administered in a dose volume of 2 ml/kg, all other test compounds were administered in a dose volume of 1 ml/kg. On the day of behavioral testing, both fluoxetine and the reversal agent (apomorphine, yohimbine, or sildenafil) were co-administered as 0 minute pretreatments. […]

c1cc2c3c(c1)[C@H]1CCC[C@H]1N3CCNC2 [Compound 1]
glutamate levels compared to vehicle-treated animals [1]: 210% | Sexual dysfunction (MED mg/kg) (male Sprague-Dawley rats): ≧10 mg/kg
